For one data set, the system named is mouse RBC. Description: Hemolysis assay (activity towards cell membranes). As to conditions: 1 h 37 °C, triplicates. The data set is classed as cell-based. The procedure:
The ability of the peptides to lyse the red blood cells (RBC) in PBS was used as a measure of membrane activity. To obtain fresh mouse RBC, blood was collected from the saphenous vein using sodium-heparinized (80 iu/ml ± 30%) blood collection capillaries (Marienfeld, Germany) and transferred to heparinized blood collecting tubes (Sarstedt, Germany). To isolate RBCs, the whole blood was centrifuged for 15 minutes at 300 × g, followed by removal of the plasma. The RBCs were then washed three times with 1 × PBS (RBC pelleting with 15 minutes at 300 × g). The resulting RBCs were then resuspended in PBS at 4% (v/v).
For the analysis, 200 μl of RBC suspension was added to 200 μl of peptide solution or peptide/pDNA complexes in 5% glucose (final RBC concentration 2%) and gently vortexed. The peptide/pDNA complexes were prepared using a fixed 1 μg of pDNA and varying amount of the peptide. Following this, samples were incubated for 1 hour at 37 °C with gentle stirring. After incubation, the RBCs were pelleted (15 minutes at 300 × g) and the amount of hemoglobin in the supernatant was assessed by measuring the absorbance at 540 nm using a 96-well microplate reader. The experiments were conducted in triplicates.
100% of hemolysis was defined as the RBCs treated with 0.1% Triton-X100 in PBS and 0% was obtained with cells incubated in 5% glucose solution. % of hemolysis was calculated by the formula: % Hemolysis = [(Asample − Aglucose)/Atriton − Aglucose)] × 100.

The next data set has as its target T1, proteinase K (Parengyodontium album, UniProt P06873).
T1 construct: purchased Thermo Scientific
Kind of data set: Proteinase K treatment of CPP/pDNA complexes. The data set is classed as in vitro ADME. As to conditions: 26 °C; for stability of the complexes against proteinase K (in words): CPP/pDNA complexes at N/P2, accessible pDNA over time by intercalating dye; for Proteinase K: t1/2 (min) of the complexed pDNA (95%CI): CPP/pDNA complexes at N/P2 in MQ, proteinase K ~2.4 U per well, accessible pDNA by PicoGreen fluorescence, normalized to free pDNA. The procedure:
For the proteinase K treatment, 30 μl of pre-formed CPP/pDNA complex solution (0.3, 0.2, 0.1 and 0.05 µg of pDNA per sample) or CPP in MQ was transferred to a black 96-well plate and 90 µl of MQ was added. After a short period of mixing, fluorescent DNA intercalating dye dilution was added (Quant-iT™ PicoGreen®, ThermoFisher Scientific) and incubated for 5 minutes at room temperature. The fluorescence was measured (Synergy MX, BioTek; λex 492 and λem 535) to quantify the initial accessibility of pDNA. Thereafter 10 μl of Proteinase K (Thermo Scientific) was added with the final enzyme concentration ~2.4 U per well. Fluorescence was measured over an indicated period at 26 °C. The readings were normalized against the fluorescence of free pDNA.

The nature of data set [1]: Complex stability in FBS, gel shift assay. The settings on record: 37 °C; for pDNA migration from complexes after 48 h in serum (in words): serum and/or triton + heparin dissociation.
Procedure: Then the samples were mixed with the DNA loading dye and electrophoresed exactly as stated above in the Gel shift assay description, using 0.1 µg of pDNA per lane. ZipRuler Express DNA Ladder 2 (ThermoFisher Scientific) was added to each gel.
The stability of the complexes after incubation in FBS, visualized by gel shift assay.
Setting [2] is: naked peptide in 5% glucose, mouse RBC 2% final in PBS, hemoglobin absorbance 540 nm, 100% = 0.1% Triton X-100, read-out: EC50 (μM) of CPP (membrane activity, concentration required to lyse 50% of the cells).
[3] abbreviates: peptide/pDNA complexes, fixed 1 μg pDNA and varying peptide, mouse RBC 2% final, absorbance 540 nm, read-out: EC50 (μM) of CPP/pDNA (membrane activity).

Read-outs that look alike come from different tables or passages of the source. Square brackets hold non-standard residues; d marks the D form. Peptide text beside a SMILES is read from it. * marks the point of attachment. Docosanoyl = CCCCCCCCCCCCCCCCCCCCCC(=O)*; Stearoyl = CCCCCCCCCCCCCCCCCC(=O)*; Decanoyl = CCCCCCCCCC(=O)*; Orn = NCCC[C@H](N)C(=O)O

T1 sequence (P06873 106-384): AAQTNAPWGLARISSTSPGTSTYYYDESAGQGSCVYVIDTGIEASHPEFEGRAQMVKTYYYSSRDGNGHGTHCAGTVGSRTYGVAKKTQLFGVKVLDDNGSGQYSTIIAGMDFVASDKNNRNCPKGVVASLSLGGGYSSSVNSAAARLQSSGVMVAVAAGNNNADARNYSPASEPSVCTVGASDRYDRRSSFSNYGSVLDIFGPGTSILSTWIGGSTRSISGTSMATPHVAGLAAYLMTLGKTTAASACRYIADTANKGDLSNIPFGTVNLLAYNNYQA

For `CC(C)C[C@H](NC(=O)[C@H](CC(C)C)NC(=O)[C@H](CCCN)NC(=O)[C@H](CCCN)NC(=O)[C@H](CC(C)C)NC(=O)[C@H](C)NC(=O)[C@H](C)NC(=O)[C@H](C)NC(=O)[C@H](C)NC(=O)[C@H](CC(C)C)NC(=O)[C@H](CCCN)NC(=O)[C@H](CCCN)NC(=O)[C@H](CC(C)C)NC(=O)[C@H](CC(C)C)NC(=O)[C@H](CCCCN)NC(=O)CNC(=O)[C@H](CC(C)C)NC(=O)[C@H](CC(C)C)NC(=O)[C@H](Cc1ccc(O)cc1)NC(=O)CNC(=O)[C@H](C)N)C(N)=O` [C0-PF14] (H-AGYLLGKLL[Orn][Orn]LAAAAL[Orn][Orn]LL-NH2), the EC50 was determined as 5.36 µM with mouse RBC (setting [2]) and 7.09 µM in the data set on mouse RBC (setting [3]). The “stability of the complexes against proteinase K (in words)” value on proteinase K is listed as “clearly a favorable substrate to the proteinase”. Moreover, the “Proteinase K: t1/2 (min) of the complexed pDNA (95%CI)” value (from here on “Proteinase K: t1/2 (min) … (95%CI)”) at proteinase K is reported as 0.5 (−0.8 ± 1.5) min. In data set [1] (50% FBS, EtBr), the “time to pDNA degradation (DNA smear) in serum” value was “about 24 h”. The “onset of DNA migration from complexes in serum” value in data set [1] (complexes N/P2 (jetPEI N/P8) in 50% FBS, EtBr) is listed as not above 0.5 h.
On to `CCCCCCCCCC(=O)N[C@@H](C)C(=O)NCC(=O)N[C@@H](Cc1ccc(O)cc1)C(=O)N[C@@H](CC(C)C)C(=O)N[C@@H](CC(C)C)C(=O)NCC(=O)N[C@@H](CCCCN)C(=O)N[C@@H](CC(C)C)C(=O)N[C@@H](CC(C)C)C(=O)N[C@@H](CCCN)C(=O)N[C@@H](CCCN)C(=O)N[C@@H](CC(C)C)C(=O)N[C@@H](C)C(=O)N[C@@H](C)C(=O)N[C@@H](C)C(=O)N[C@@H](C)C(=O)N[C@@H](CC(C)C)C(=O)N[C@@H](CCCN)C(=O)N[C@@H](CCCN)C(=O)N[C@@H](CC(C)C)C(=O)N[C@@H](CC(C)C)C(N)=O` [C10-PF14] (Decanoyl-AGYLLGKLL[Orn][Orn]LAAAAL[Orn][Orn]LL-NH2), for which the EC50 in the data set on mouse RBC (setting [2]) was determined as 0.36 µM; in the data set on mouse RBC (setting [3]), 0.86 µM. In addition, the “Proteinase K: t1/2 (min) … (95%CI)” value at proteinase K is recorded as 26.7 (20.1 ± 32.5) min. Moreover, the “pDNA migration from complexes after 48 h in serum (in words)” value (“pDNA migration from complexes after 48 h” for short) in data set [1] (50% FBS) is “less migration and less degradation”.
For `CCCCCCCCCCCCCCCCCCCCCC(=O)N[C@@H](C)C(=O)NCC(=O)N[C@@H](Cc1ccc(O)cc1)C(=O)N[C@@H](CC(C)C)C(=O)N[C@@H](CC(C)C)C(=O)NCC(=O)N[C@@H](CCCCN)C(=O)N[C@@H](CC(C)C)C(=O)N[C@@H](CC(C)C)C(=O)N[C@@H](CCCN)C(=O)N[C@@H](CCCN)C(=O)N[C@@H](CC(C)C)C(=O)N[C@@H](C)C(=O)N[C@@H](CCCN)C(=O)N[C@@H](CCCN)C(=O)N[C@@H](C)C(=O)N[C@@H](CC(C)C)C(=O)N[C@@H](CCCN)C(=O)N[C@@H](CCCN)C(=O)N[C@@H](CC(C)C)C(=O)N[C@@H](CC(C)C)C(N)=O` [C22-PF14-O] (Docosanoyl-AGYLLGKLL[Orn][Orn]LA[Orn][Orn]AL[Orn][Orn]LL-NH2), the “stability of the complexes against proteinase K (in words)” value on proteinase K is recorded as “virtually inaccessible to the enzyme”. Further, the “pDNA migration from complexes after 48 h” value in data set [1] (50% FBS) is “migration of pDNA from some of the complexes could be observed”.
As for `CCCCCCCCCCCCCCCCCCCCCC(=O)N[C@@H](C)C(=O)NCC(=O)N[C@@H](Cc1ccc(O)cc1)C(=O)N[C@@H](CC(C)C)C(=O)N[C@@H](CC(C)C)C(=O)NCC(=O)N[C@@H](CCCCN)C(=O)N[C@@H](CC(C)C)C(=O)N[C@@H](CC(C)C)C(=O)N[C@@H](CCCN)C(=O)N[C@@H](CCCN)C(=O)N[C@@H](CC(C)C)C(=O)N[C@@H](C)C(=O)N[C@@H](C)C(=O)N[C@@H](C)C(=O)N[C@@H](C)C(=O)N[C@@H](CC(C)C)C(=O)N[C@@H](CCCN)C(=O)N[C@@H](CCCN)C(=O)N[C@@H](CC(C)C)C(=O)N[C@@H](CC(C)C)C(N)=O` [C22-PF14] (Docosanoyl-AGYLLGKLL[Orn][Orn]LAAAAL[Orn][Orn]LL-NH2), the EC50 in the data set with mouse RBC (setting [2]) was determined as 0.64 µM; in the data set on mouse RBC (setting [3]) it was 1.47 µM. The “Proteinase K: t1/2 (min) … (95%CI)” value on proteinase K is on record as 162.7 (159.6 ± 166.7) min. Besides, the “pDNA migration from complexes after 48 h” value in data set [1] (50% FBS) was “less migration and less degradation”.
With `CCCCCCCCCCCCCCCCCC(=O)N[C@@H](C)C(=O)NCC(=O)N[C@@H](Cc1ccc(O)cc1)C(=O)N[C@@H](CC(C)C)C(=O)N[C@@H](CC(C)C)C(=O)NCC(=O)N[C@@H](CCCCN)C(=O)N[C@@H](CC(C)C)C(=O)N[C@@H](CC(C)C)C(=O)N[C@@H](CCC(=O)O)C(=O)N[C@@H](CCCN)C(=O)N[C@@H](CC(C)C)C(=O)N[C@@H](C)C(=O)N[C@@H](C)C(=O)N[C@@H](C)C(=O)N[C@@H](C)C(=O)N[C@@H](CC(C)C)C(=O)N[C@@H](CCCN)C(=O)N[C@@H](CCCN)C(=O)N[C@@H](CC(C)C)C(=O)N[C@@H](CC(C)C)C(N)=O` [PF14-E] (Stearoyl-AGYLLGKLLE[Orn]LAAAAL[Orn][Orn]LL-NH2), the EC50 with mouse RBC (setting [2]) was 0.67 µM; in the data set on mouse RBC (setting [3]), 2.36 µM. On proteinase K, the “Proteinase K: t1/2 (min) … (95%CI)” value was 16.7 (10.5 ± 21.8) min.
Turning to `CCCCCCCCCCCCCCCCCC(=O)N[C@@H](C)C(=O)NCC(=O)N[C@@H](Cc1ccc(O)cc1)C(=O)N[C@@H](CC(C)C)C(=O)N[C@@H](CC(C)C)C(=O)NCC(=O)N[C@@H](CCCCN)C(=O)N[C@@H](CC(C)C)C(=O)N[C@@H](CC(C)C)C(=O)N[C@@H](CCCN)C(=O)N[C@@H](CCCN)C(=O)N[C@@H](CC(C)C)C(=O)N[C@@H](C)C(=O)N[C@@H](CCCN)C(=O)N[C@@H](CCCN)C(=O)N[C@@H](C)C(=O)N[C@@H](CC(C)C)C(=O)N[C@@H](CCCN)C(=O)N[C@@H](CCCN)C(=O)N[C@@H](CC(C)C)C(=O)N[C@@H](CC(C)C)C(N)=O` [PF14-O] (Stearoyl-AGYLLGKLL[Orn][Orn]LA[Orn][Orn]AL[Orn][Orn]LL-NH2), the values for the EC50 in the data set with mouse RBC (setting [2]) and in the data set on mouse RBC (setting [3]) were 0.6 µM and 1.17 µM, respectively. Moreover, the “Proteinase K: t1/2 (min) … (95%CI)” value at proteinase K is on record as 94.2 (90.7 ± 97.4) min. Also, the “pDNA migration from complexes after 48 h” value in data set [1] (50% FBS) is given as “migration of pDNA from some of the complexes could be observed”.

Source of the values: publication PMC5719086, “Effective in vivo gene delivery with reduced toxicity, achieved by charge and fatty acid -modified cell penetrating peptide” (Scientific Reports, 2017).
